Experimental data as given in article PMC10755728, “Inhibitors of the Elastase LasB for the Treatment of Pseudomonas aeruginosa Lung Infections” (ACS Central Science, 2023).
Like-named read-outs stand apart in the source and are kept apart here.

Experiments:
ColH-PD = ColH-PD (Hathewaya histolytica, UniProt Q46085); experiment: biochemical; assay type: biochemical, Clostridium histolyticum; conditions: for inhibition at 1 µM: read-out: % inhibition ColH-PD @1 µM
LasB = biological target: T1, LasB (Pseudomonas aeruginosa, UniProt Q02RJ6); experiment: biochemical; assay type: biochemical; conditions: for fold drop in activity compared to the 4-Me derivative (4a): vs 4a
T1 construct: made in house
T1 sequence (Q02RJ6 198-498): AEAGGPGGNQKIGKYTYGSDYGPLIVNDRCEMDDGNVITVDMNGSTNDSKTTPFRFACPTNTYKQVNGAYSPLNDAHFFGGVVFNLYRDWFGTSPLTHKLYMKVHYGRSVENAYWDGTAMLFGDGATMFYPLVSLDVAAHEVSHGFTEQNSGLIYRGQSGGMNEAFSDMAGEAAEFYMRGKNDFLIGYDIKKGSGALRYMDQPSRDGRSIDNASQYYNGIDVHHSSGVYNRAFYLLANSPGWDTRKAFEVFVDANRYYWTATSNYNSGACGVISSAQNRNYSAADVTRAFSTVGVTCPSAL

MMP-2 = biological target: T2, MMP-2 (Homo sapiens, UniProt P08253); experiment: MMP-2 inhibition assay; assay type: biochemical; conditions: read-out: % inhibition MMP-2
T2 construct: purchased AnaSpec (Fremont, CA, USA)
T2 sequence (P08253 110-660): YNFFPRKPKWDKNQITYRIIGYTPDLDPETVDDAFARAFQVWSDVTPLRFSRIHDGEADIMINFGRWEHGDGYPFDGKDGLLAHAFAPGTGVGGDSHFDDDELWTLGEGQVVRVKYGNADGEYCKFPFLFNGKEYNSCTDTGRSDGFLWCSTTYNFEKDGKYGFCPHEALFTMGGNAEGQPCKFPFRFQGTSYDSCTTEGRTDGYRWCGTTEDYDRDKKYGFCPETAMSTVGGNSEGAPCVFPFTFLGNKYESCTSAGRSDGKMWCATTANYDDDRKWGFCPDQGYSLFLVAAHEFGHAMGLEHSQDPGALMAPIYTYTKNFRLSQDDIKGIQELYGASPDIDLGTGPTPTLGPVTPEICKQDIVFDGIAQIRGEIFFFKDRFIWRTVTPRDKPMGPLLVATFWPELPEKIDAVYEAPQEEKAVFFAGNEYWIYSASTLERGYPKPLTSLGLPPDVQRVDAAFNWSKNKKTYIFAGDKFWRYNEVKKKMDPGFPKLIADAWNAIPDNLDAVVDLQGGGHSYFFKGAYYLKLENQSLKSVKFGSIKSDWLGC

[1] = Lipophilicity determination (LogD7.4, HPLC-MS); assay type: physicochemical; conditions: pH 7.4, pH 7.4, chromatographic
Method: Lipophilicity determination. LogD7.4 was analyzed using an HPLC−MS based method.50 The retention time of 12 compounds with known LogD7.4 was determined and plotted toward their LogD7.4. Linear regression was used to determine the LogD7.4 of unknown compounds. Analysis was performed using a Dionex Ultimate 3000 HPLC system coupled to a TSQ Quantum Access MAX (Thermo Fisher, Dreieich, Germany) with the following conditions: EC150/2 NUCLEODUR C18 Pyramid column, 5 μM (Macherey Nagel, Düren, Germany); eluent A: 50 mM NH4OAc pH 7.4, eluent B: acetonitrile, and flow: 0.6 mL/min.

Plasma stability, mouse = assay type: in vitro ADME; conditions: mouse plasma; read-out: Plasma T1/2 Mouse
P. aeruginosa PA14 = experiment: Bacterial growth inhibition assay; assay type: cell-based, Pseudomonas aeruginosa; conditions: Pseudomonas aeruginosa, PA14; 100 µM compound concentration; read-out: Percent (%) growth inhibition of P. aeruginosa PA14
Method: Bacterial growth inhibition assay. Assays regarding the determination of the MIC were
performed as described recently for P. aeruginosa PA14.58

[2] = Metabolic stability in mouse liver S9 fraction; assay type: in vitro ADME
MMP-3 = biological target: T3, MMP-3 (Homo sapiens, UniProt P08254); experiment: MMP-3 inhibition assay; assay type: biochemical; conditions: read-out: % inhibition MMP-3
T3 construct: purchased AnaSpec (Fremont, CA, USA)
T3 sequence (P08254 100-477): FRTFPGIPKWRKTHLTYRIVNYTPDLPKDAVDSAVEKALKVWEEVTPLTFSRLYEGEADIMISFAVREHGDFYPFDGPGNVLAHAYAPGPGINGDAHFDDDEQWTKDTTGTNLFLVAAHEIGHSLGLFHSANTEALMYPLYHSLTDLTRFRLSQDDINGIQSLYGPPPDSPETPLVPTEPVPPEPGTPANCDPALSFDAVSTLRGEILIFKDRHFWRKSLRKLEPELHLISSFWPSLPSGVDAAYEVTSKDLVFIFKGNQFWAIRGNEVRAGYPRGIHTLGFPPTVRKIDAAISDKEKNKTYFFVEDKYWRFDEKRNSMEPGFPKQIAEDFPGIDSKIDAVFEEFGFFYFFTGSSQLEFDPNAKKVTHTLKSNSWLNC

[3] = Metabolic stability in human liver S9 fraction; assay type: in vitro ADME
MMP-1 = biological target: T4, MMP-1 (Homo sapiens, UniProt P03956); experiment: MMP-1 inhibition assay; assay type: biochemical; conditions: read-out: % inhibition MMP-1
T4 construct: purchased AnaSpec (Fremont, CA, USA)
T4 sequence (P03956 100-469): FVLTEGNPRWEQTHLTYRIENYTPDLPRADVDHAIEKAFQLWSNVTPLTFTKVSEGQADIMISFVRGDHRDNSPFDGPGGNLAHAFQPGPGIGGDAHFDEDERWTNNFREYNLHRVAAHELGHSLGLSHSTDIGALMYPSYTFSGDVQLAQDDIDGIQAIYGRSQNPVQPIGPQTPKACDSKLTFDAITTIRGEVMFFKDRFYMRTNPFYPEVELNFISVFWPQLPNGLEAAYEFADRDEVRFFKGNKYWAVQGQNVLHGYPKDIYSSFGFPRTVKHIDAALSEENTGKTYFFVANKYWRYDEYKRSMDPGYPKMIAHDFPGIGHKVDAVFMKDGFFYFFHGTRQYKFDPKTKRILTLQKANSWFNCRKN

HEK293 = conditions: human, 48 h, 100 µM
Method: Culturing of HepG2, A549 and HEK293 cells. The human hepatocellular carcinoma cell line HepG2, the lung adenocarcinoma cell line A549 and Human Embryonic (HEK) 293 cells were cultured in Dulbecco's Modified Eagle Medium (DMEM), containing 10% Fetal Bovine Serum
(FBS) and 1% penicillin-streptomycin mixture. Cells were maintained according to standard cell
Cytotoxicity assay. An MTT-based assay was employed to evaluate the viability of HepG2,
HEK293 and A549 cells after challenge with selected LasB inhibitors and performed as described

TACE = biological target: T5, TACE (Homo sapiens, UniProt P78536); experiment: TACE inhibitor screening kit; assay type: biochemical; conditions: read-out: % inhibition TACE
T5 construct: purchased Sigma-Aldrich (Saint Louis, MO)
T5 sequence (P78536 215-824): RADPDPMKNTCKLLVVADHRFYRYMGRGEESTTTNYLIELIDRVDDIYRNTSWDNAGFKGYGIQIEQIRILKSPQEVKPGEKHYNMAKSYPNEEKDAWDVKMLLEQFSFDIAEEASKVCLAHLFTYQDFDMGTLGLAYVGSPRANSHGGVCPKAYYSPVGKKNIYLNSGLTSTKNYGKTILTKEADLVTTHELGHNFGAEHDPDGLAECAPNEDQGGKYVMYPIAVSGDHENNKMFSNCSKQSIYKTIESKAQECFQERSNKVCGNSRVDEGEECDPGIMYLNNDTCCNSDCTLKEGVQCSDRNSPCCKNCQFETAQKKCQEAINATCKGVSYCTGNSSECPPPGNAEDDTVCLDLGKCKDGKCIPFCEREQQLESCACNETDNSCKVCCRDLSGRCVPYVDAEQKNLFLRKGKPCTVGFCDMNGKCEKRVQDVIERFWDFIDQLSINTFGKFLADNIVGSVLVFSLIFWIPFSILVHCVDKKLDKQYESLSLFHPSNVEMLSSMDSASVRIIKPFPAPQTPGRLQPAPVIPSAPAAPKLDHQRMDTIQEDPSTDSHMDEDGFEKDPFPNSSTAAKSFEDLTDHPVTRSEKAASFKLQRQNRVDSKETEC

COX-1 = biological target: T6, COX-1 (Ovis aries, UniProt P05979); experiment: Fluorometric COX-1 inhibitor assay; assay type: biochemical, human
T6 construct: purchased Abcam (Cambridge, UK)
T6 sequence (P05979 25-600): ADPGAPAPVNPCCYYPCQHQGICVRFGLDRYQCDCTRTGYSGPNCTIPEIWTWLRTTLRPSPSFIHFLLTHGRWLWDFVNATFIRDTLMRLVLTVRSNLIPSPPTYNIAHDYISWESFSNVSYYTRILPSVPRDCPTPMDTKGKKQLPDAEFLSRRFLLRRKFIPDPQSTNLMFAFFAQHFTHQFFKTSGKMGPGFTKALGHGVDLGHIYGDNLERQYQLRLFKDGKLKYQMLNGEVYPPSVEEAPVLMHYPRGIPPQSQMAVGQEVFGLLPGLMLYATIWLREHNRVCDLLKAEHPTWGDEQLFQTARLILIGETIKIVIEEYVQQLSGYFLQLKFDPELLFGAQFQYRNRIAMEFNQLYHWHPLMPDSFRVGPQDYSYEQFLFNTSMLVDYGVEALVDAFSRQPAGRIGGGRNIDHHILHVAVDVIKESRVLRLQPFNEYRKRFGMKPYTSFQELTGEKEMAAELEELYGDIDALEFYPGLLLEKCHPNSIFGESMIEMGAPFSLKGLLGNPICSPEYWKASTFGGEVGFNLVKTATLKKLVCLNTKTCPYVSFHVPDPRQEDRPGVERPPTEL

[4] = tested on: Galleria mellonella larvae infected with wt PA14; experiment: G. mellonella infection model
[5] = FRET-based assay, read-out: LasB IC50

ColH-PD, sequence (Q46085 331-721 limits assumed): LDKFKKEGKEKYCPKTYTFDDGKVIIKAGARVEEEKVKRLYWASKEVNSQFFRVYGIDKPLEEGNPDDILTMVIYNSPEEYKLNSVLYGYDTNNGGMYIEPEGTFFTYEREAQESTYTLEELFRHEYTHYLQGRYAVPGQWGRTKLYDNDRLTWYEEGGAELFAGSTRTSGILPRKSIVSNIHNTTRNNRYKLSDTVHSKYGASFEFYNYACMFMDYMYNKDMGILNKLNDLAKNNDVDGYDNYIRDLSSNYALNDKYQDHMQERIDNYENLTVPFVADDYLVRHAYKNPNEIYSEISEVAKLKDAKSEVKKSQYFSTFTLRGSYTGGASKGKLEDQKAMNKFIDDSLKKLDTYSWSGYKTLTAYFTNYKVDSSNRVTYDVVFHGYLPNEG

Compound: Cc1ccc(NC(=O)C(CC(C)C)P(=O)(O)O)c(F)c1 (stereo not shown) [Compound 4d]
- inhibition at 1 µM (ColH-PD): < 10%
- IC50 (LasB; [5]): 116 ± 16.1 nM
- fold drop in activity compared to the 4-Me derivative (4a) (LasB): ~2 fold

Compound: Cc1ccc(NC(=O)C(CC(C)C)P(=O)(O)O)c(C)c1 (stereo not shown) [Compound 4e]
- IC50 (LasB; [5]): 84.5 ± 2.7 nM
- fold drop in activity compared to the 4-Me derivative (4a) (LasB): ~2 fold

Compound: COc1ccc(NC(=O)C(CC(C)C)P(=O)(O)O)cc1 (stereo not shown) [Compound 4f]
- inhibition at 1 µM (ColH-PD): < 10%
- IC50 (LasB; [5]): 51.8 ± 10.4 nM

Compound: CC(=O)c1ccc(NC(=O)C(CC(C)C)P(=O)(O)O)cc1 (stereo not shown) [Compound 4g]
- % inhibition ColH-PD @1 µM (ColH-PD): 65%
- Ki (ColH-PD): 320 ± 70 nM
- fold higher potency against ColH compared to 2 (ColH-PD): 20 fold
- IC50 (LasB; [5]): 40.4 ± 11.6 nM

Compound: CC(C)CC(C(=O)Nc1ccc(Cl)cc1)P(=O)(O)O (stereo not shown) [Compound 4i]
- IC50 (LasB; [5]): 47.6 ± 4.4 nM

Compound: CC(C)CC(C(=O)Nc1ccc(Br)cc1)P(=O)(O)O (stereo not shown) [Compound 4j]
- IC50 (LasB; [5]): 48.6 ± 2.3 nM

Compound: CC(C)CC(C(=O)Nc1ccc(C#N)cc1)P(=O)(O)O (stereo not shown) [Compound 4k]
- inhibition at 100 µM (MMP-2): < 10%
- chromatographic logD [1]: -0.87
- half-life at 1 μM (Plasma stability, mouse): > 2.5 h
- inhibition at 100 µM (P. aeruginosa PA14): < 10%
- microsomal CLint at 1 μM [2]: < 5.8 µL/min/mg
- inhibition at 100 µM (MMP-3): 11 ± 5%
- microsomal CLint at 1 μM [3]: < 5.8 µL/min/mg
- inhibition at 100 µM (MMP-1): 10 ± 5%
- % growth inhibition HEK293 (HEK293): 15 ± 23%
- inhibition at 100 µM (TACE): < 10%
- IC50 (LasB; LasB IC50, FRET-based assay): ~25 nM
- IC50 (LasB; LasB IC50 in presence of 1% pulmonary surfactant, 1% pulmonary surfactant): 85 nM
- inhibition at 100 µM (COX-1): < 10%

Compound: CC(C)CC(C(=O)Nc1cccc2ccccc12)P(=O)(O)O (stereo not shown) [Compound 4m]
- IC50 (LasB; [5]): 69.1 ± 7.5 nM

Compound: CC(C)CC(C(=O)Nc1ccc2ccccc2c1)P(=O)(O)O (stereo not shown) [Compound 4n]
- IC50 (LasB; [5]): 63.6 ± 9.9 nM

Compound: CC(C)CC(C(=O)Nc1ccc2c(c1)CCC2)P(=O)(O)O (stereo not shown) [Compound 4o]
- IC50 (LasB; [5]): 44.3 ± 4.5 nM

Compound: CC(C)CC(C(=O)Nc1ccc(Cl)cn1)P(=O)(O)O (stereo not shown) [Compound 4p]
- IC50 (LasB; [5]): 500 ± 40 nM
- fold more potent than 4q (LasB; vs 4q): 2 fold

Compound: CC(C)CC(C(=O)Nc1ccc(C(N)=O)nc1)P(=O)(O)O (stereo not shown) [Compound 4r]
- IC50 (LasB; LasB IC50, FRET-based assay): 220 ± 20 nM

Compound: Cc1ccc(NC(=O)C(Cc2ccccc2)P(=O)(O)O)cc1 (stereo not shown) [Compound 4x]
- IC50 (LasB; [5]): 137 ± 33 nM

Compound: O=C(Nc1ccc(C(F)(F)F)cc1)C(Cc1ccccc1)P(=O)(O)O (stereo not shown) [Compound 4y]
- IC50 (LasB; [5]): 101.5 ± 0.9 nM

Compound: Cc1ccc(NC(=O)C(CC2CCCCC2)P(=O)(O)O)cc1 (stereo not shown) [Compound 4z]
- IC50 (LasB; [5]): 2030 nM

Compound: NC[C@H]1O[C@H](O[C@H]2[C@H](O)[C@@H](O[C@H]3O[C@H](CO)[C@@H](O)[C@H](N)[C@H]3O)[C@H](N)C[C@@H]2N)[C@H](N)C[C@@H]1O [tobramycin, reference compound]
- survival of larvae infected with wt PA14 ([4]; 1 nmol 4b, 10.7 nmol tobramycin, or both, 17% in the wild type): 23%
- survival in the PBS treated groups (not infected) ([4]; PBS with 4b, tobramycin or combination of both): 100%
